From patent US9944591B2, “Active compound and related composition for dermatological use in the pharmaceutical or cosmetic field” (GIULIANI S.P.A., priority 2014, dated 2018)

Experiments:
[1] = system: ROS (reactive oxygen species); assay: Production of ROS by DCFH-DA assay (H2O2-induced oxidative stress); assay type: cell-based, human
TNF-α = assay: Anti-inflammatory effects through gene expression of TNF-alpha on keratinocytes (qRT-PCR); assay type: cell-based; conditions: human keratinocytes NCTC 2544, 5 μM, 24 h, LPS 5 μg/ml; FIG. 3
Description: In such further test, an immortalized line of human keratinocytes NCTC 2544 is used (Perry V. P. et al., 1957) cultured in sterile flasks ([…]), incubated at 37° C. in a humid atmosphere at 5% CO2 in culture medium MEM (Minimum Essential Medium) supplemented with 10% fetal bovine serum (FBS), 2 mM glutamine, 1% non-essential amino acids, in the presence of 1% penicillin and streptomycin.
When the cells (human keratinocytes NCTC 2544) reached about 80% confluence, they were detached with trypsin/EDTA and seeded at a density of 1×10^6 cells/ml in 12-well plates and incubated at 37° C., 5% CO2 (24 h). […]
The effect of the compounds object of the study on the gene expression of TNF-α was evaluated by quantitative RT-PCR (quantitative reverse transcription-polymerasechainreaction-qRT-PCR). […]
Using a spectrophotometer (Jenway UV/VIS MOD: 6715, BS-6715B0), concentrations were calculated in μg/mL of total RNA extracted at a wavelength of 260 nm.
(§1) Finally, the integrity of RNA (2 μg/mL) was assessed by means of an electrophoresis run on 1% agarose gel. […]
(§2) Extracted and quantified RNA was diluted to a concentration of 2 μg/mL and reverse transcribed into cDNA. […]

[2] = system: HAS1 (Hyaluronan Synthase 1); assay: Gene expression of HAS1 (hyaluronan synthase 1) on fibroblasts (qRT-PCR); assay type: cell-based; conditions: BALB3T3 mouse fibroblasts, 24 h, 2.5 and 5 μM, FIG. 4
Description: In this third test, the mouse fibroblast cell line Balb 3T3 Clone A31 (ATCC CCL-163™) (Aaronson and Todaro, 1968) was used, cultured in sterile flasks ([…]), incubated at 37° C. in a humid atmosphere at 5% CO2 in DMEM (Dulbecco's Modified Eagle's Medium) added with 10% bovine fetal serum (CBS), 1% non-essential amino acids, in the presence of 1% penicillin and streptomycin.
The 1:3 split is done every 2 days upon achieving the monolayer by washing with 1×PBS (phosphate buffer without Ca^2+ and Mg^2+) and detachment of cells with a trypsin-EDTA solution at 37° C. for 2 minutes. […]
Gene expression of HAS1 in BALB3T3 cells was evaluated by relative quantitative RT-PCR (quantitative reverse transcription-polymerase chain reaction-qRT-PCR). […]
At the end of incubation with the active compounds of interest, cells were washed with PBS (1×) and finally subjected to RNA extraction procedure. At the end of the extraction, using a spectrophotometer (Jenway UV/VIS MOD: 6715, BS-6715B0), concentrations were calculated in μg/mL of total RNA extracted at a wavelength of 260 nm.
as §1, §2
The Taqman probe is a type of probe that allows the development of fluorescence as the amplification advances. […]

C/C=C/C=C/C=C/C(=O)NCCCC(=O)O [compound of the invention, 4-((2E,4E,6E)-octa-2,4,6-trienamid)butanoic acid]
% ROS produced/Ctr, compared to GABA ([1]; human keratinocytes NCTC2544, 0.5 μM, versus comparison compound GABA at same concentration, FIG. 2): superior antioxidant activity | % ROS produced/Ctr (antioxidant activity) ([1]; human keratinocytes NCTC2544, 16 h pre-treatment at 0.5 μM, 1 μM, 5 μM, then 1 mM H2O2 90 min, FIG. 1): antioxidant activity | gene expression of TNF-α (2-ΔΔCt) compared to positive control (TNF-α): reduced expression of TNF-α | gene expression of HAS1 compared to reference compound GABA ([2]; versus GABA): higher than the reference compound at both concentrations tested | gene expression of HAS1 (2^−ΔΔCt) [2]: increased gene expression of HAS1
